Results as given in patent EP0086647A2, “Pyrimidone compounds, their preparation, and pharmaceutical compositions containing them” (YAMANOUCHI PHARMACEUTICAL CO. LTD., priority 1982, dated 1983).
Where a name gives a salt, the structure may show the parent alone.

What was measured:
[1] = system: gastric acid secretion; assay: Acid inhibition, Shay (4hr.) / (Dog), results table; type: in vivo
[2] = Cytoprotective action (animal experiment methods, not described); type: in vivo; design: key: *: These compounds also have cytoprotective action

SMILES	Acid Inhibition Shay(4hr.) (mg./kg.) (Dog) ([1]; dose 3mg (mg./kg.))	Acid Inhibition Shay(4hr.) (mg./kg.) (Dog) ([1]; dose 0.1mg (mg./kg.))	cytoprotective action [2]
CCN(CC)CCCc1c(C)[nH]c(CCSCc2csc(N=C(N)N)n2)nc1=O [Example 17, 2-(2-[[[2-((diaminomethylene)amino)-4-t:hiazolyl]methyl]-thio]ethyl]-5-(3-diethylaminopropyl)-6-methyl-4(1H)-pyrimidone tri-hydrochloride]	83%(3mg)		
CCc1c(C)[nH]c(CCSCc2csc(N=C(N)N)n2)nc1=O [Example 27, 2-[2-[[[2-[(diaminomethylene)amino)-4-thiazolyl]methyl]thio]-ethyl]-5-ethyl-6-methyl-4(1H)-pyrimidone]		90%(0.1mg)	
CCCc1c(C)[nH]c(CCSCc2csc(N=C(N)N)n2)nc1=O [Example 28]		60%(0.1mg)	
C#CCc1c(C)[nH]c(CCSCc2csc(N=C(N)N)n2)nc1=O [Example 29, 2-[2-[[[2-[(diaminomethylene)amino]-4-thiazolyl]methyl]thio]-ethyl]-6-methyl-5-(2-propinyl)-4(1H)-pyrimidone]		95%(0.1mg)	
CCCCc1c(C)[nH]c(CCSCc2csc(N=C(N)N)n2)nc1=O [Example 30, 2-[2-[[[2-[(diaminomethylene)amino]-4-thiazolyl]methyl]thio]-ethyl]-5-n-butyl-6-methy-1-4(1H)-pyrimidone di-hydrochloride]		70%(0.1mg)	R=butyl*
CCCCCc1c(C)[nH]c(CCSCc2csc(N=C(N)N)n2)nc1=O.Cl.Cl [Example 31, 2-[2-[[[2-[(diaminomethylene)amino]-4-thiazolyl]methyl]thio]-ethyl]-6-methyl-5-n-pentyl-4(1H)-pyrimidone di-hydrochloride]		95%(0.1mg)	R=amyl*
Cc1[nH]c(CCSCc2csc(N=C(N)N)n2)nc(=O)c1CCC(C)C [Example 32, 2-[2-[[[2-[(diaminomethylene)amino]-4-thiazolyl]methyl]thio]-ethyl)-6-methyl-5-(3-methylbutyl)-4(lH)-pyrimidone di-hydrochloride]			R=iso-amyl*
